Results published in patent publication US11725000B2, “Apoptosis inhibitors” (National Institute of Biological Sciences, Beijing, priority 2017, dated 2023).

tested on: U2OS_Bim cells; assay: Apoptosis inhibition assay (Bim-induced apoptosis, cell viability by ATP level); assay type: cell-based; settings: U2OS_Bim cells; estimated (*Est.) / preliminary results; numbering of Tables 4a/4b; read-out: EC50
How it was run: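 Apoptosis was triggered by doxycycline (0.1 μg/mL) induction of Bim, one hour after compound addition to U2OS_Bim cells. Survival was measured after 24 h from cellular ATP (CellTiter-Glo), relative to DMSO, with zVAD at 20 μM as rescue control. Data are duplicate means, some estimated from preliminary results.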

Structure (SMILES)	EC50 [nM]
Cc1cc(-c2cc(F)c(=O)n(Cc3ccc4c(c3)OCO4)c2)nc(S(=O)(=O)CCC(OCc2cccn2C)c2ccccc2)n1 (centres unmarked) [Compound 403]	1 to 1000
Cc1cc(-c2cc(F)c(=O)n(Cc3ccc4c(c3)OCO4)c2)nc(S(=O)(=O)CCC(OCC2CCNC2)c2ccccc2)n1 (centres unmarked) [Compound 413]	1 to 1000
Cc1cc(-c2cc(F)c(=O)n(Cc3ccc4c(c3)OCCN4)c2)nc(S(=O)(=O)CCC(OCc2ccccc2F)c2ccccc2)n1 (centres unmarked) [Compound 358]	1 to 1000
Cc1cc(-c2cc(F)c(=O)n(Cc3ccc4nnn(C)c4c3)c2)nc(S(=O)(=O)CCCC(=O)N(c2ccccc2)C(C)(C)C)n1 [Compound 374]	1 to 1000
Cc1cc(-c2cc(F)c(=O)n(Cc3ccc4c(c3)OCO4)c2)nc(S(=O)(=O)CCC(OCc2ccccc2F)c2cc3ccccc3n2C)n1 (centres unmarked) [Compound 387]	1 to 1000
Cc1cc(-c2cc(F)c(=O)n(Cc3ccc4c(c3)CCN4C)c2)nc(S(=O)(=O)CCC(OCc2ccccc2F)c2ccccc2)n1 (centres unmarked) [Compound 352]	1 to 1000
Cc1cc(-c2cc(F)c(=O)n(Cc3ccc4c(c3)OCO4)c2)nc(S(=O)(=O)CCCC(=O)N(c2ccccc2)C2CCC2)n1 [Compound 370]	1 to 1000
COc1ccc(Cn2cc(-c3cc(C(F)F)nc(S(=O)(=O)CCCOCc4ccccc4)n3)ccc2=O)cc1OC [Compound 272, 5-(2-((3-(benzyloxy)propyl)sulfonyl)-6-(difluoromethyl)pyrimidin-4-yl)-1-(3,4-dimethoxybenzyl)pyridin-2 (1H)-one]	1 to 1000
Cc1cc(-c2cc(F)c(=O)n(Cc3ccc4c(c3)OCO4)c2)nc(S(=O)(=O)CCC(OCc2cnco2)c2ccccc2)n1 (centres unmarked) [Compound 408]	1 to 1000

same assay, conditions: U2OS_Bim cells; estimated based on preliminary results; numbering of Tables 4a/4b; read-out: EC50

Structure (SMILES)	EC50 [nM]
CS(=O)(=O)c1nc(-c2ccc(=O)n(Cc3ccc4ncccc4c3)c2)cc(C(F)(F)F)n1 [Compound 246]	< 10000
COc1ccn(Cn2cc(-c3cc(C(F)(F)F)nc([S+](C)[O-])n3)ccc2=O)c1 (centres unmarked) [Compound 261]	< 10000
COc1ccc(Cn2cc(-c3cc(C(F)(F)F)nc(S(=O)(=O)Cn4ncnn4)n3)ccc2=O)cc1OC [Compound 195]	< 10000
COc1ccc(Cn2cc(-c3cc(C(F)(F)F)nc([S+]([O-])Cc4ccncc4)n3)ccc2=O)cc1OC (centres unmarked) [Compound 191]	< 10000
C[S+]([O-])c1nc(-c2ccc(=O)n(Cc3ccc4ocnc4c3)c2)cc(C(F)(F)F)n1 (centres unmarked) [Compound 225]	< 10000
COc1ccc(Cn2cc(-c3cc(C(F)(F)F)nc(S(=O)(=O)CN4CCCC4)n3)ccc2=O)cc1OC [Compound 194]	< 10000
CS(=O)(=O)c1nc(-c2ccc(=O)n(CC3=Cc4ccccc4C3)c2)cc(C(F)(F)F)n1 [Compound 254]	< 10000
COc1ccc(Cn2cc(-c3cc(C(F)(F)F)nc([S+]([O-])Cc4cccnc4)n3)ccc2=O)cc1OC (centres unmarked) [Compound 192]	< 10000
CCc1ccc(Cn2cc(-c3cc(C(F)(F)F)nc(S(C)(=O)=O)n3)ccc2=O)cc1CC [Compound 266]	< 10000

same assay, conditions: U2OS_Bim cells; means of duplicates; numbering of Tables 4a/4b; read-out: EC50

Structure (SMILES)	EC50 [nM]
CNS(=O)(=O)CCCS(=O)(=O)c1nc(-c2ccc(=O)n(Cc3ccc(OC)c(OC)c3)c2)cc(C(F)F)n1 [Compound 178, 3-((4-(difluoromethyl)-6-(1-(3,4-dimethoxybenzyl)-6-oxo-1,6-dihydropyridin-3-yl)pyrimidin-2-yl)sulfonyl)-N-methylpropane-1-sulfonamide]	1 to 1000
CCCOc1cccc(Cn2cc(-c3cc(C(F)(F)F)nc(S(C)(=O)=O)n3)ccc2=O)c1 [Compound 113, 5-(2-(methylsulfonyl)-6-(trifluoromethyl)pyrimidin-4-yl)-1-(3-propoxybenzyl)pyridin-2 (1H)-one]	1 to 1000
Cc1cc(-c2c[nH]c(=O)c(F)c2)nc(S(=O)(=O)CCC(OCc2ccccc2F)c2ccccc2)n1 (centres unmarked) [Compound 325, 3-fluoro-5-(2-(3-(2-fluorobenzyloxy)-3-phenylpropylsulfonyl)-6-methylpyrimidin-4-yl)pyridin-2 (1H)-one]	1000 to 10000
Cc1cc(-c2cc(F)c(=O)n(Cc3ccc4c(c3)OCO4)c2)nc(S(=O)(=O)CCC(OCc2ccc(F)cc2F)c2ccccc2)n1 (centres unmarked) [Compound 317, 1-(benzo[d][1,3]dioxol-5-ylmethyl)-5-(2-((3-((2,4-difluorobenzyl)oxy)-3-phenylpropyl)sulfonyl)-6-methylpyrimidin-4-yl)-3-fluoropyridin-2 (1H)-one]	1 to 1000
CS(=O)(=O)c1nc(-c2cccc(Oc3ccccc3)c2)cc(C(F)(F)F)n1 [Compound 73, 2-(methylsulfonyl)-4-(3-phenoxyphenyl)-6-(trifluoromethyl)pyrimidine]	1000 to 10000
COc1ccc(Cn2cc(-c3cc(CF)nc(S(C)(=O)=O)n3)ccc2=O)cc1OC [Compound 161, 5-(6-(fluoromethyl)-2-(methylsulfonyl)pyrimidin-4-yl)-1-(3,4-dimethoxybenzyl)pyridin-2 (1H)-one]	1 to 1000
COc1ccc(Cn2cc(-c3cc(C(F)F)nc(S(=O)(=O)CCCC(=O)NC45CC6CC(CC(C6)C4)C5)n3)ccc2=O)cc1OC [Compound 288, N-((3s,5s,7s)-adamantan-1-yl)-4-((4-(difluoromethyl)-6-(1-(3,4-dimethoxybenzyl)-6-oxo-1,6-dihydropyridin-3-yl)pyrimidin-2-yl)sulfonyl)butanamide]	1 to 1000
C[S+]([O-])c1nc(-c2ccn(Cc3cccc(C#N)c3)c2)cc(C(F)(F)F)n1 (centres unmarked) [Compound 98, 3-((3-(2-(methylsulfinyl)-6-(trifluoromethyl)pyrimidin-4-yl)-1H-pyrrol-1-yl)methyl)benzonitrile]	< 100000
COc1ccc(Cn2cc(-c3cc(C(F)F)nc([S+]([O-])c4cccc(N)c4)n3)ccc2=O)cc1OC (centres unmarked) [Compound 181, 5-(2-((3-aminophenyl)sulfinyl)-6-(difluoromethyl)pyrimidin-4-yl)-1-(3,4-dimethoxybenzyl)pyridin-2 (1H)-one]	1 to 1000
Cc1cc(-c2cnc(=O)n(Cc3ccc4c(c3)OCO4)c2)nc(S(=O)(=O)CCC(OCc2ccccc2F)c2ccccc2)n1 (centres unmarked) [Compound 307, 1′-(benzo[d][1,3]dioxol-5-ylmethyl)-2-((3-((2-fluorobenzyl)oxy)-3-phenylpropyl)sulfonyl)-6-methyl-[4,5′-bipyrimidin]-2′(1′H)-one]	1 to 1000
COc1ccc(Cn2cc(-c3cc(C(F)(F)F)nc(S(=O)(=O)CCC(=O)N4CCCC4)n3)ccc2=O)cc1OC [Compound 150, 1-(3,4-dimethoxybenzyl)-5-(2-((3-oxo-3-(pyrrolidin-1-yl)propyl)sulfonyl)-6-(trifluoromethyl)pyrimidin-4-yl)pyridin-2 (1H)-one]	1 to 1000
COc1ccc(Cn2cc(-c3nc(S(C)(=O)=O)nc(C(F)(F)F)c3Cl)ccc2=O)cc1OC [Compound 162, 5-(5-chloro-2-(methylsulfonyl)-6-(trifluoromethyl)pyrimidin-4-yl)-1-(3,4-dimethoxybenzyl)pyridin-2 (1H)-one]	1 to 1000
COc1ccc(Cn2cc(-c3cc(-c4ccccc4F)nc(S(=O)(=O)CCC(OCc4ccccc4)c4ccccc4)n3)ccc2=O)cc1OC (centres unmarked) [Compound 298, 5-(2-((3-(benzyloxy)-3-phenylpropyl)sulfonyl)-6-(2-fluorophenyl)pyrimidin-4-yl)-1-(3,4-dimethoxybenzyl)pyridin-2 (1H)-one]	< 100000
COc1cc(Cn2cc(-c3cc(C(F)F)nc(SC)n3)ccc2=O)cc(F)c1OC [Compound 171, 5-(6-(difluoromethyl)-2-(methylthio)pyrimidin-4-yl)-1-(3-fluoro-4,5-dimethoxybenzyl)pyridin-2 (1H)-one]	1 to 1000
COc1ccc(Cn2cc(-c3cc(C(F)F)nc(S(=O)(=O)CCCNC(C)=O)n3)ccc2=O)cc1OC [Compound 185, N-(3-((4-(difluoromethyl)-6-(1-(3,4-dimethoxybenzyl)-6-oxo-1,6-dihydropyridin-3-yl)pyrimidin-2-yl)sulfonyl)propyl)acetamide]	1000 to 10000
COc1ccc(Cn2cc(-c3cc(C)nc([S+]([O-])CCC(OCc4ccccc4)c4ccccc4)n3)ccc2=O)cc1OC (centres unmarked) [Compound 294, 5-(2-(3-(benzyloxy)-3-phenylpropylsulfinyl)-6-methylpyrimidin-4-yl)-1-(3,4-dimethoxybenzyl)pyridin-2 (1H)-one]	1 to 1000
COc1cc(Cn2cc(-c3cc(C(F)(F)F)nc(S(C)(=O)=O)n3)ccc2=O)ccn1 [Compound 135, 1-((2-methoxypyridin-4-yl)methyl)-5-(2-(methylsulfonyl)-6-(trifluoromethyl)pyrimidin-4-yl)pyridin-2 (1H)-one]	1 to 1000
CS(=O)(=O)c1nc(-c2ccc(=O)n(Cc3cccc(Br)c3)c2)cc(C(F)(F)F)n1 [Compound 107, 1-(3-bromobenzyl)-5-(2-(methylsulfonyl)-6-(trifluoromethyl)pyrimidin-4-yl)pyridin-2 (1H)-one]	1 to 1000
C[S+]([O-])c1nc(-c2cc[nH]c2)cc(C(F)(F)F)n1 (centres unmarked) [Compound 88, 2-(methylsulfinyl)-4-(1H-pyrrol-3-yl)-6-(trifluoromethyl)pyrimidine]	< 100000
CS(=O)(=O)c1nc(-c2cccc(C(N)=O)c2)cc(C(F)(F)F)n1 [Compound 66, 3-(2-(methylsulfonyl)-6-(trifluoromethyl)pyrimidin-4-yl)benzamide]	1000 to 10000
C[S+]([O-])c1nc(-c2ccc(C(=O)O)cc2)cc(C(F)(F)F)n1 (centres unmarked) [Compound 65, 4-(2-(methylsulfinyl)-6-(trifluoromethyl)pyrimidin-4-yl)benzoic acid]	< 100000
COc1ccc(Cn2cc(-c3cc(-c4cccs4)nc(S(=O)(=O)CCC(OCc4ccccc4)c4ccccc4)n3)ccc2=O)cc1OC (centres unmarked) [Compound 300, 5-(2-((3-(benzyloxy)-3-phenylpropyl)sulfonyl)-6-(thiophen-2-yl)pyrimidin-4-yl)-1-(3,4-dimethoxybenzyl)pyridin-2 (1H)-one]	1 to 1000
COc1ccc(-c2cc(C(F)(F)F)nc([S+](C)[O-])n2)cc1 (centres unmarked) [Compound 54, 4-(4-methoxyphenyl)-2-(methylsulfinyl)-6-(trifluoromethyl)pyrimidine]	1000 to 20000
